{"source": "ChEMBL document CHEMBL1126406", "about": "“Novel oxathiazinones as gastrin ligands : Unexpected preducts from the schotten-baumann reaction of arylsulphonyl chlorides with derivatives of aspartic acid” (1992)", "key": {"Mus musculus [1]": {"species_on_record": "Mus musculus", "experiment": "Evaluated for the Log A50 value in the isolated mouse stomach assay", "assay_type": "functional"}, "Mus musculus [2]": {"species_on_record": "Mus musculus", "experiment": "The compound was evaluated for the percentage of pentagastrin control in the isolated mouse stomach assay", "assay_type": "functional"}}}
{"compound": "Cc1ccc(S2(=O)=N[C@H](C(=O)NC(Cc3ccccc3)C(N)=O)CC(=O)O2)cc1", "note": "(stereo partly specified)", "values": [{"measurement": "Log A50", "setting": "Mus musculus [1]", "result": -5.3}, {"measurement": "Control", "setting": "Mus musculus [2]", "result": 56, "unit": "%"}]}
{"compound": "NC(=O)C(Cc1ccccc1)NC(=O)[C@@H]1CC(=O)OS(=O)(c2ccc3ccccc3c2)=N1", "note": "(stereo partly specified)", "values": [{"measurement": "Log A50", "setting": "Mus musculus [1]", "result": -8.1}, {"measurement": "Control", "setting": "Mus musculus [2]", "result": 67, "unit": "%"}]}
{"compound": "NC(=O)C(Cc1ccccc1)NC(=O)[C@H](CC(=O)O)NS(=O)(=O)c1ccc2ccccc2c1", "note": "(stereo partly specified)", "values": [{"measurement": "Log A50", "setting": "Mus musculus [1]", "result": -5.6}, {"measurement": "Control", "setting": "Mus musculus [2]", "result": 96, "unit": "%"}]}
